Values joined by “and” are separate entries in the source; they are usually repeats but may differ in a detail not shown here. Equal entries are not always repeated.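 Where inhibition never reached the appropriate level, the endpoint shown equals the highest concentration tested. Otherwise, values were interpolated linearly from a five-concentration, 48-hour dose response in 96-well plates. At the GI50, growth is halved. TGI marks complete inhibition of growth.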
Key:
Assay in all cases: inhibition of tumour cell growth, NCI panel, 48 h
MOLT-4 leukemia = system: MOLT-4 leukemia
OVCAR-3 ovarian = system: OVCAR-3 ovarian
PC-3 prostate = system: PC-3 prostate
HOP-62 NSCLC = system: HOP-62 NSCLC
NCI-H23 lung = system: NCI-H23 lung
EKVX NSCLC = system: EKVX NSCLC
SNB-75 CNS = system: SNB-75 CNS
MCF7 breast = system: MCF7 breast
SN12C renal = system: SN12C renal
CAKI-1 renal = system: CAKI-1 renal

With NCc1ccc(-c2nc(-c3ccc(Cl)c(O)c3)c(-c3ccncc3)[nH]2)cc1 the GI50 (MOLT-4 leukemia) was > 25 µM, the TGI (MOLT-4 leukemia) was > 25 µM and the GI50 (OVCAR-3 ovarian) was > 25 µM. For the same compound, the TGI (OVCAR-3 ovarian) was > 25 µM, the GI50 (PC-3 prostate) was > 25 µM and the TGI (PC-3 prostate) was > 25 µM. The GI50 (HOP-62 NSCLC) was > 25 µM, the TGI (HOP-62 NSCLC) was > 25 µM and the GI50 (NCI-H23 lung) was 13.5 µM. The TGI (NCI-H23 lung) was > 25 µM, the GI50 (EKVX NSCLC) was > 25 µM and the TGI (EKVX NSCLC) was > 25 µM. For the same compound, the GI50 (SNB-75 CNS) was 4.1 µM, the TGI (SNB-75 CNS) was > 20 µM and the GI50 (MCF7 breast) was > 25 µM. For the same compound, the TGI (MCF7 breast) was > 25 µM, the GI50 (SN12C renal) was > 25 µM and the TGI (SN12C renal) was > 25 µM. For the same compound, the GI50 (CAKI-1 renal) was > 25 µM and the TGI (CAKI-1 renal) was > 25 µM.

Compound COc1ccc(-c2[nH]c3ccccc3c2/C=C(\C#N)S(=O)(=O)c2ccccc2)cc1 has a GI50 (MOLT-4 leukemia) of 0.666 µM, a TGI (MOLT-4 leukemia) of 8.39 µM and a GI50 (OVCAR-3 ovarian) of 0.241 µM. The TGI (OVCAR-3 ovarian) was 0.673 µM, the GI50 (PC-3 prostate) was 0.533 µM and the TGI (PC-3 prostate) was > 68.8 µM. The GI50 (HOP-62 NSCLC) was 0.958 µM, the TGI (HOP-62 NSCLC) was > 35.3 µM and the GI50 (NCI-H23 lung) was 0.769 µM. For the same compound, the TGI (NCI-H23 lung) was > 61.1 µM, the GI50 (EKVX NSCLC) was 1.25 µM and the TGI (EKVX NSCLC) was > 100 µM. For the same compound, the GI50 (SNB-75 CNS) was 0.375 µM, the TGI (SNB-75 CNS) was > 25.9 µM and the GI50 (MCF7 breast) was 0.398 µM. For the same compound, the TGI (MCF7 breast) was > 51.6 µM, the GI50 (SN12C renal) was 1.34 µM and the TGI (SN12C renal) was > 100 µM. For the same compound, the GI50 (CAKI-1 renal) was 0.975 µM and the TGI (CAKI-1 renal) was > 31.6 µM.

Work on O=S(=O)(NCCCNc1cc(-c2cn(-c3ccccc3)nc2-c2cccc(O)c2)ccn1)c1ccc(F)cc1 yielded a GI50 (MOLT-4 leukemia) of 2.15 µM, a TGI (MOLT-4 leukemia) of 6.55 µM and a GI50 (OVCAR-3 ovarian) of 3.28 µM. For the same compound, the TGI (OVCAR-3 ovarian) was 14.9 µM, the GI50 (PC-3 prostate) was 3.11 µM and the TGI (PC-3 prostate) was 8.5 µM. The GI50 (HOP-62 NSCLC) was 4.98 µM, the TGI (HOP-62 NSCLC) was 19.3 µM and the GI50 (NCI-H23 lung) was 3.48 µM. The TGI (NCI-H23 lung) was 19 µM, the GI50 (EKVX NSCLC) was 3.92 µM and the TGI (EKVX NSCLC) was 64.4 µM. It also gave a GI50 (SNB-75 CNS) of 3.47 µM, a TGI (SNB-75 CNS) of 16 µM and a GI50 (MCF7 breast) of 3.26 µM. It also gave a TGI (MCF7 breast) of 12.4 µM, a GI50 (SN12C renal) of 4.32 µM and a TGI (SN12C renal) of 28.2 µM. The GI50 (CAKI-1 renal) was 4.56 µM and the TGI (CAKI-1 renal) was 44.6 µM.

With C/C(=N\NC(=S)N1CCN(c2ccccn2)CC1)c1ncccn1 the TGI (MOLT-4 leukemia) was 7.02 µM and > 38.4 µM, the GI50 (OVCAR-3 ovarian) was 0.213 µM and the TGI (OVCAR-3 ovarian) was 7.5 µM and 15.3 µM. It also gave a GI50 (PC-3 prostate) of 0.0298 µM, a TGI (PC-3 prostate) of 15.9 µM and a GI50 (HOP-62 NSCLC) of 0.0865 µM. The TGI (HOP-62 NSCLC) was 2.09 µM and 7.05 µM, the GI50 (NCI-H23 lung) was < 0.016 µM and the TGI (NCI-H23 lung) was 4.81 µM and 19.3 µM. For the same compound, the GI50 (EKVX NSCLC) was 0.0494 µM, the TGI (EKVX NSCLC) was 5.2 µM and 12.8 µM and the GI50 (SNB-75 CNS) was 4.48 µM. It also gave a TGI (SNB-75 CNS) of 20.3 µM, a TGI (MCF7 breast) of 13.4 µM and a GI50 (SN12C renal) of 0.0709 µM. It also gave a TGI (SN12C renal) of 18.1 µM, a GI50 (CAKI-1 renal) of 0.447 µM and a TGI (CAKI-1 renal) of 16 µM.

Reference: PubChem BioAssay (NCI)
